# Data taken from patent publication US5516790A, “Synthesis and application of alkyl-substituted dibenzofurans as antitumorigenic agents” (Texas A&M University System Technology Licensing Office, priority 1994, dated 1996).
# How the values were obtained:
# [1] = tested on: estrogen receptor (ER); experiment: Uterine estrogen receptor levels, hydroxyapatite assay (Example 8); type: in vivo, female Sprague-Dawley rats; details: for ED40-60 for Inhibition, ERc / ED40-60 for Inhibition, ERn: cotreatment with 17β-estradiol
# Method: A second group of animals was similarly treated with corn oil, TCDD, MCDF, or TCDD plus MCDF, all administered in corn oil at 10 ml/kg and terminated 72 hours later.
# (§1) The animals were terminated by cervical dislocation. Livers were perfused with ice-cold TEDG buffer (10 mM Tris-HCl, 1.5 mM EDTA-4Na, 1 mM dithiothreitol, 10% glycerol (v/v), pH 7.4). Following perfusion in situ, livers were removed, weighed, and homogenized in ice-cold TEDG buffer. Uteri were also removed, weighed, and homogenized in ice-cold buffer. The homogenates were then centrifuged at 800×g ([…]) for 15 minutes and the nuclear pellets were stored at -80° C. The supernatants were further centrifuged at 180,000× g for 1.5 hours. The cytosolic supernatant was also stored at -80° C. Estrogen and progesterone receptor levels were determined within 7 days.
# (§2) Estrogen (ER) and progesterone (PR) receptor levels were determined by the hydroxyapatite assay as described by Clark et al. (J. Steroid Biochem. 16:323-328, 1982) and incorporated herein by reference. […] Following the incubations, samples were counted and specific binding was calculated by subtraction of nonspecific from total binding. Assuming one steroid molecule binds to one estrogen/progesterone receptor, the number of moles of receptor can be calculated given the specific activity of the radioligand. The data presented in Tables 1 through 6 are means ± SD using at least four animals per treatment group. Significant differences were determined by analysis of variance.
# [2] = tested on: progesterone receptor (PR); experiment: Uterine progesterone receptor levels, hydroxyapatite assay (Example 8); type: in vivo, female Sprague-Dawley rats; details: for ED40-60 for Inhibition, PRc / ED40-60 for Inhibition, PRn: cotreatment with 17β-estradiol
# Method: as §1, §2
# [3] = tested on: female rat uterus; experiment: Antiestrogenic effect on uterine wet weight, immature female Sprague-Dawley rats (Example 8); type: in vivo
# [4] = Table 2: 50 μmol/kg + E-2 (2 × 10 μg/rat)
# [5] = Table 2: compound alone, 50 μmol/kg (17β-estradiol: 2 × 10 μg/rat)
# [6] = 150 μmol/kg + E-2 (2 × 10 μg/rat), run A
# [7] = compound alone, 150 μmol/kg (17β-estradiol: 2 × 10 μg/rat), run A
# [8] = Table 3: 50 μmol/kg + E-2 (2 × 10 μg/rat)
# [9] = Table 3: compound alone, 50 μmol/kg (17β-estradiol: 2 × 10 μg/rat)
# [10] = dose-response, 2 μmol/kg + 17β-estradiol (2 × 10 μg/rat)
# [11] = dose-response, 10 μmol/kg + 17β-estradiol (2 × 10 μg/rat)
# [12] = dose-response, 25 μmol/kg + 17β-estradiol (2 × 10 μg/rat)
# [13] = dose-response, 50 μmol/kg + 17β-estradiol (2 × 10 μg/rat)
structure (smiles),measurement,setting,value
"Cc1cc2c(cc1Cl)oc1c(Cl)cc(Cl)c(Cl)c12 [8-Methyl-1,2,4,7-tetraCDF, 8-methyl-1,2,4,7-tetrachlorodibenzofuran]","Estrogen Receptor Levels, Cytosolic",[1]; [4],118.4 ± 14.6 fmol/mg protein
same,"Estrogen Receptor Levels, Nuclear",[1]; [4],66.5 ± 8.9 fmol/mg protein
same,"Estrogen Receptor Levels, Cytosolic",[1]; [5],97.1 ± 10.1 fmol/mg protein
same,"Estrogen Receptor Levels, Nuclear",[1]; [5],40.6 ± 5.3 fmol/mg protein
same,"Progesterone Receptor Levels, Cytosolic",[2]; [4],841 ± 73 fmol/mg protein
same,"Progesterone Receptor Levels, Nuclear",[2]; [4],399 ± 75 fmol/mg protein
same,"Progesterone Receptor Levels, Cytosolic",[2]; [5],685 ± 59 fmol/mg protein
same,"Progesterone Receptor Levels, Nuclear",[2]; [5],303 ± 46 fmol/mg protein
same,Uterine Wet Weight,[3]; [4],0.213 ± 0.017 % body wt
same,Uterine Wet Weight,[3]; [5],0.175 ± 0.007 % body wt
"Cc1cc(Cl)c2oc3cc(Cl)cc(Cl)c3c2c1 [8-Methyl-1,3,6-triCDF]","Estrogen Receptor Levels, Cytosolic",[1]; [6],65.9 ± 77.5 fmol/mg protein
same,"Estrogen Receptor Levels, Nuclear",[1]; [6],20.8 ± 70.5 fmol/mg protein
same,"Estrogen Receptor Levels, Cytosolic",[1]; [7],54.1 ± 6.2 fmol/mg protein
same,"Estrogen Receptor Levels, Nuclear",[1]; [7],38.1 ± 5.8 fmol/mg protein
same,"Progesterone Receptor Levels, Cytosolic",[2]; [6],838 ± 66 fmol/mg protein
same,"Progesterone Receptor Levels, Nuclear",[2]; [6],203 ± 35 fmol/mg protein
same,"Progesterone Receptor Levels, Cytosolic",[2]; [7],686 ± 77 fmol/mg protein
same,"Progesterone Receptor Levels, Nuclear",[2]; [7],188 ± 29 fmol/mg protein
same,Uterine Wet Weight,[3]; [6],0.212 ± 0.021 % body wt
same,Uterine Wet Weight,[3]; [7],0.089 ± 0.008 % body wt
"Cc1cc2c(cc1Cl)oc1cc(Cl)cc(Cl)c12 [8-Methyl-1,3,7-triCDF, 8-Methyl-1,3,7-trichlorodibenzofuran]","Estrogen Receptor Levels, Cytosolic",[1]; [4],119.0 ± 14.3 fmol/mg protein
same,"Estrogen Receptor Levels, Nuclear",[1]; [4],51.1 ± 7.4 fmol/mg protein
same,"Estrogen Receptor Levels, Cytosolic",[1]; [5],72.8 ± 8.3 fmol/mg protein
same,"Estrogen Receptor Levels, Nuclear",[1]; [5],26.4 ± 5.1 fmol/mg protein
same,"Progesterone Receptor Levels, Cytosolic",[2]; [4],1025 ± 151 fmol/mg protein
same,"Progesterone Receptor Levels, Nuclear",[2]; [4],952 ± 113 fmol/mg protein
same,"Progesterone Receptor Levels, Cytosolic",[2]; [5],503 ± 63 fmol/mg protein
same,"Progesterone Receptor Levels, Nuclear",[2]; [5],795 ± 92 fmol/mg protein
same,Uterine Wet Weight,[3]; [4],0.181 ± 0.007 % body wt
same,Uterine Wet Weight,[3]; [5],0.127 ± 0.019 % body wt
"Cc1cc2c(cc1Cl)oc1c(Cl)c(Cl)c(Cl)cc12 [8-Methyl-2,3,4,7-tetraCDF, 8-Methyl-2,3,4,7-tetrachlorodibenzofuran]","Estrogen Receptor Levels, Cytosolic",[1]; [8],107.2 ± 5.4 fmol/mg protein
same,"Estrogen Receptor Levels, Nuclear",[1]; [8],43.7 ± 2.2 fmol/mg protein
same,"Estrogen Receptor Levels, Cytosolic",[1]; [9],66.8 ± 3.3 fmol/mg protein
same,"Estrogen Receptor Levels, Nuclear",[1]; [9],30.9 ± 1.6 fmol/mg protein
same,"ED40-60 for Inhibition, ERc",[1],10 µmol/kg
same,"ED40-60 for Inhibition, ERn",[1],25 µmol/kg
same,"Estrogen Receptor Levels, Cytosolic",[1]; [10],183.4 ± 9.2 fmol/mg protein
same,"Estrogen Receptor Levels, Nuclear",[1]; [10],83.2 ± 4.2 fmol/mg protein
same,"Estrogen Receptor Levels, Cytosolic",[1]; [11],151.9 ± 9.1 fmol/mg protein
same,"Estrogen Receptor Levels, Nuclear",[1]; [11],82.8 ± 5.0 fmol/mg protein
same,"Estrogen Receptor Levels, Cytosolic",[1]; [12],137.4 ± 6.9 fmol/mg protein
same,"Estrogen Receptor Levels, Nuclear",[1]; [12],69.0 ± 4.1 fmol/mg protein
same,"Estrogen Receptor Levels, Cytosolic",[1]; [13],114.9 ± 5.8 fmol/mg protein
same,"Estrogen Receptor Levels, Nuclear",[1]; [13],69.2 ± 4.2 fmol/mg protein
same,"Progesterone Receptor Levels, Cytosolic",[2]; [8],725 ± 51 fmol/mg protein
same,"Progesterone Receptor Levels, Nuclear",[2]; [8],360 ± 25 fmol/mg protein
same,"Progesterone Receptor Levels, Cytosolic",[2]; [9],616 ± 43 fmol/mg protein
same,"Progesterone Receptor Levels, Nuclear",[2]; [9],161 ± 13 fmol/mg protein
same,"ED40-60 for Inhibition, PRc",[2],10 µmol/kg
same,"ED40-60 for Inhibition, PRn",[2],10 µmol/kg
same,"Progesterone Receptor Levels, Cytosolic",[2]; [10],2167 ± 152 fmol/mg protein
same,"Progesterone Receptor Levels, Nuclear",[2]; [10],866 ± 52 fmol/mg protein
same,"Progesterone Receptor Levels, Cytosolic",[2]; [11],1670 ± 117 fmol/mg protein
same,"Progesterone Receptor Levels, Nuclear",[2]; [11],701 ± 35 fmol/mg protein
same,"Progesterone Receptor Levels, Cytosolic",[2]; [12],1405 ± 98 fmol/mg protein
same,"Progesterone Receptor Levels, Nuclear",[2]; [12],697 ± 56 fmol/mg protein
same,"Progesterone Receptor Levels, Cytosolic",[2]; [13],1098 ± 88 fmol/mg protein
same,"Progesterone Receptor Levels, Nuclear",[2]; [13],514 ± 41 fmol/mg protein
same,Uterine Wet Weight,[3]; [8],0.245 ± 0.006 % body wt
same,Uterine Wet Weight,[3]; [9],0.094 ± 0.006 % body wt
same,Uterine Wet Weight,[3]; [10],0.179 ± 0.009 % body wt
same,Uterine Wet Weight,[3]; [11],0.201 ± 0.008 % body wt
same,Uterine Wet Weight,[3]; [12],0.181 ± 0.002 % body wt
same,Uterine Wet Weight,[3]; [13],0.172 ± 0.005 % body wt
"Cc1cc2c(cc1Cl)oc1cc(Cl)c(Cl)cc12 [8-methyl-2,3,7-triCDF, 8-Methyl-2,3,7-Trichlorodibenzofuran]","ED40-60 for Inhibition, ERc",[1],2 µmol/kg
same,"ED40-60 for Inhibition, ERn",[1],10 µmol/kg
same,"Estrogen Receptor Levels, Cytosolic",[1]; [10],131.8 ± 6.6 fmol/mg protein
same,"Estrogen Receptor Levels, Nuclear",[1]; [10],90.2 ± 5.4 fmol/mg protein
same,"Estrogen Receptor Levels, Cytosolic",[1]; [11],125.3 ± 6.3 fmol/mg protein
same,"Estrogen Receptor Levels, Nuclear",[1]; [11],76.8 ± 3.8 fmol/mg protein
same,"Estrogen Receptor Levels, Cytosolic",[1]; [12],117.5 ± 5.9 fmol/mg protein
same,"Estrogen Receptor Levels, Nuclear",[1]; [12],72.8 ± 3.6 fmol/mg protein
same,"Estrogen Receptor Levels, Cytosolic",[1]; [13],107.1 ± 5.4 fmol/mg protein
same,"Estrogen Receptor Levels, Nuclear",[1]; [13],67.3 ± 4.0 fmol/mg protein
same,"ED40-60 for Inhibition, PRc",[2],2 µmol/kg
same,"ED40-60 for Inhibition, PRn",[2],10 µmol/kg
same,"Progesterone Receptor Levels, Cytosolic",[2]; [10],1673 ± 117 fmol/mg protein
same,"Progesterone Receptor Levels, Nuclear",[2]; [10],835 ± 50 fmol/mg protein
same,"Progesterone Receptor Levels, Cytosolic",[2]; [11],1596 ± 112 fmol/mg protein
same,"Progesterone Receptor Levels, Nuclear",[2]; [11],685 ± 62 fmol/mg protein
same,"Progesterone Receptor Levels, Cytosolic",[2]; [12],1461 ± 102 fmol/mg protein
same,"Progesterone Receptor Levels, Nuclear",[2]; [12],631 ± 37 fmol/mg protein
same,"Progesterone Receptor Levels, Cytosolic",[2]; [13],856 ± 60 fmol/mg protein
same,"Progesterone Receptor Levels, Nuclear",[2]; [13],605 ± 66 fmol/mg protein
same,Uterine Wet Weight,[3]; [10],0.192 ± 0.013 % body wt
same,Uterine Wet Weight,[3]; [11],0.211 ± 0.019 % body wt
same,Uterine Wet Weight,[3]; [12],0.192 ± 0.004 % body wt
same,Uterine Wet Weight,[3]; [13],0.224 ± 0.012 % body wt
